Data reported in patent US20080293676A1, “Insecticidal Agents Based on Selected Insecticides and Safeners” (priority 2004, published 2008).

Experiments:
Assay type in all cases: in vivo
[1] = test system: green peach aphid (Myzus persicae); assay: Myzus persicae test, spray treatment to runoff on infested bell pepper plants; conditions: for Kill in % after 1^d: Table E2
From the text: (§1) The expected activity for a given combination of two active ingredients can be calculated (cf. Colby, S. R.; “Calculating Synergistic and Antagonistic Responses of Herbicide Combinations”, Weeds 15, pages 20-22, 1967):
(§2) If • x=the kill rate, expressed in % of the untreated control, when employing active ingredient A at an application rate of m ppm, • Y=the kill rate, expressed in % of the untreated control, when employing active ingredient B at an application rate of n ppm, and • E=the kill rate, expressed in % of the untreated control, when employing active ingredients A and B at application rates of m and n ppm, then
(§3) If the actual insecticidal kill rate is higher than the calculated one, the kill of the combination is superadditive, i.e. a synergistic effect is present. In this case, the kill rate that is actually observed has to be higher than the value, calculated using the formula above, for the expected kill rate (E).
(§4) An appropriate solution is prepared by mixing 1 part by weight of formulation with the stated amount of water and adjuvant, and diluting the concentrate with water to the desired concentration.
Bell pepper plants (Capsicum sativum) heavily infested by the green peach aphid (Myzus persicae) are sprayed to runoff with the desired concentration of the application solution.
(§5) After the desired time the kill in % is determined in each case. In this context, 100% means that all of the larvae have been killed; 0% means that no larvae have been killed. The kill figures determined are calculated in accordance with the Colby formula described above.

[2] = test system: cotton aphid (Aphis gossypii); assay: Aphis gossypii test, spray treatment to runoff on infested cotton plants
From the text: as §1, §2, §3, §4
Cotton plants (Gossypium herbaceum) heavily infested by the cotton aphid (Aphis gossypii) are sprayed to runoff with the desired concentration of the application solution.
as §5

[3] = test system: caterpillars of the army worm (Spodoptera frugiperda); assay: Spodoptera frugiperda test, spray treatment to runoff on corn plants
From the text: as §1, §2, §3, §4
b) Spodoptera frugiperda Test
Corn plants (Zea mais) are sprayed to runoff with the desired use concentration and are populated with caterpillars of the army worm (Spodoptera frugiperda) while the leaves are still wet.
as §5

[4] = test system: caterpillars of the cotton boll worm (Heliothis armigera); assay: Heliothis armigera test, spray treatment to runoff on cotton plants; conditions: Table A, 4 ppm
From the text: as §1, §2, §3, §4
a) Heliothis armigera Test […]
After the desired time the kill in % is determined in each case. […] The kill figures determined are calculated in accordance with the Colby formula described above.

[5] = test system: larvae of the cabbage moth (Plutella xylostella); assay: Plutella xylostella test, spray treatment to runoff on cabbage plants; conditions: Table B
From the text: as §1, §2, §3, §4
c) Plutella xylostella Test
Cabbage plants (Brassica pekinesis) are sprayed to runoff with the desired use concentration and are populated with larvae of the cabbage moth (Plutella xylostella) while the leaves are still wet.
as §5

## CC1(C)OC(c2ccco2)CN1C(=O)C(Cl)Cl (stereo not shown) [Furilazole a.i., 3-dichloroacetyl-5-(2-furanyl)-2,2-dimethyloxazolidine]
[1]; 100 ppm
  Kill in % after 1^d: 0%
[2]; Table D1, 100 ppm
  Kill in % after 3^d: 0%
[2]; Table D2, 100 ppm
  Kill in % after 3^d: 0%
[3]; Table C2, 100 ppm
  Kill in % after 3^d: 0%

## C=CCN(CC=C)C(=O)C(Cl)Cl [Dichlormid a.i., 2,2-dichloro-N,N-di-2-propenylacetamide]
[2]; Table D1, 100 ppm
  Kill in % after 3^d: 0%
[3]; Table C2, 50 ppm
  Kill in % after 3^d: 0%

## CC1(C)C(C=C(Cl)Cl)C1C(=O)OC(C#N)c1ccc(F)c(Oc2ccccc2)c1 (stereo not drawn) [β-Cyfluthrin, Beta-Cyfluthrin]
[1]; Table E1, 0.8 ppm, after 3 d
  Kill in % after 3^d: 10%
[2]; Table D1, 0.8 ppm
  Kill in % after 3^d: 35%

## Chlorpyrifos
[4]
  Kill in % after 3^d: 0%
[5]; 4 ppm
  Kill in % after 7^d: 0%
[3]; Table C1, 4 ppm
  Kill in % after 3^d: 50%

## CC1(C)[C@H](C(=O)O[C@H](C#N)c2cccc(Oc3ccccc3)c2)[C@@H]1C=C(Br)Br [Deltamethrin]
[1]; 0.8 ppm
  Kill in % after 1^d: 20%
[2]; Table D2, 0.8 ppm
  Kill in % after 3^d: 15%

## CNC(=O)Oc1cc(C)c(SC)c(C)c1 [Methiocarb]
[5]; 20 ppm
  Kill in % after 7^d: 0%
[3]; Table C2, 20 ppm
  Kill in % after 3^d: 17%

## Clc1cc(Cl)nc(-c2ccccc2)n1 [Fenclorim, 4,6-dichloro-2-phenylpyrimidine]
[5]; 100 ppm
  Kill in % after 7^d: 0%
[2]; Table D1, 100 ppm
  Kill in % after 3^d: 0%
[2]; Table D2, 100 ppm
  Kill in % after 3^d: 0%
[3]; Table C2, 100 ppm
  Kill in % after 3^d: 0%
